Holding throughout (format): cell-based, SJL mice
For experiment [1], the system named is encephalitogenic lymphocytes. The experiment can be described thus: Spontaneous adhesion of encephalitogenic T cells on purified ICAM-1. The following applies: Mus musculus, Lymphocyte, 1 h; for inhibition at 5 µM: [cpd] 5 μM, read-out: Inhibition of Spontaneous Adhesion in encephalitogenic lymphocytes (% of control/non-treated cells) ICAM-1; for inhibition at 10 µM: [cpd] 10 μM; for inhibition at 10 µM / inhibition at 25 µM / inhibition at 50 µM / inhibition at 100 µM: read-out: Inhibition of Spontaneous Adhesion in encephalitogenic lymphocytes (% of control/non-treated cells) ICAM-1 (converted); for inhibition at 25 µM: [cpd] 25 μM; for inhibition at 50 µM: [cpd] 50 μM; for inhibition at 100 µM: [cpd] 100 μM. A digest of the protocol:
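Autoreactive T cells came from SJL mice immunized with PLP139-151. Cells were pretreated for 1 h with compound at 5-100 μM or DMSO vehicle, then tested for spontaneous adhesion to purified ICAM-1 or VCAM-1. Inhibition is given as percent of vehicle control (100%), mean ± S.D. of three-four experiments.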

Experiment [2] has as its system encephalitogenic lymphocytes. The experiment can be described thus: Spontaneous adhesion of encephalitogenic T cells on purified VCAM-1. The following applies: Mus musculus, Lymphocyte, 1 h; for inhibition at 5 µM: [cpd] 5 μM, read-out: Inhibition of Spontaneous Adhesion in encephalitogenic lymphocytes (% of control/non-treated cells) VCAM-1; for inhibition at 10 µM: [cpd] 10 μM; for inhibition at 10 µM / inhibition at 25 µM / inhibition at 50 µM: read-out: Inhibition of Spontaneous Adhesion in encephalitogenic lymphocytes (% of control/non-treated cells) VCAM-1 (converted); for inhibition at 25 µM: [cpd] 25 μM; for inhibition at 50 µM: [cpd] 50 μM. How it is done: Spontaneous adhesion of encephalitogenic lymphocytes was measured in adhesion assays on purified ICAM-1 and VCAM-1 as previously described (Constantin G. et al., J. Immunol. 162, 1144-1149, 1999). Autoreactive T cells were obtained from SJL mice immunized with PLP139-151 as described (Piccio L. et al., J. Immunol. 168, 1940-1949, 2002). Lymphocytes were treated with test compound at concentrations between 5-100 μM for 1 h, while control/untreated cells were treated with vehicle (DMSO). Results are expressed as percentage of inhibition over control (=100%) ±S.D and are the mean of three-four experiments.
ICAM-1 and VCAM-1 are adhesion molecules from the family of immunoglobulins and control the migration of lymphocytes through the endothelium during inflammatory responses. Encephalitogenic T cells are activated lymphocytes displaying spontaneous adhesion on ICAM-1 and VCAM-1 and have increased migration capacities in inflammation sites. Spontaneous adhesion of encephalitogenic lymphocytes was measured in adhesion assays on purified ICAM-1 and VCAM-1 as described in the method.

The test system of experiment [3] is encephalitogenic lymphocytes. The experiment can be described thus: Chemokine-induced adhesion of murine encephalitogenic T cells to ICAM-1. The following applies: for Block of chemokine-induced autoreactive lymphocyte adhesion, in words: 5-50 μM for 1 h, 1 μM CCL19; for Chemokine-induced Adhesion in encephalitogenic lymphocytes, Mean counts ± S.D., in presence of MIP3-β stimulation: 1 μM CCL19 (MIP-3beta); for Chemokine-induced Adhesion in encephalitogenic lymphocytes, Mean counts ± S.D., in presence of MIP3-β stimulation / Adhesion in encephalitogenic lymphocytes, Mean counts ± S.D., in absence of MIP3-β stimulation: ICAM-1. A digest of the protocol: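 Murine PLP139-151-reactive T cells from immunized SJL mice were pretreated with compound (5-50 μM, 37° C., 30-60 min or 1 h), then stimulated with 1 μM CCL19 (2-3 min, static) on ICAM-1-coated glass. Bound cells counted after washing and fixation; values are mean counts ±S.D of three experiments.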

Turning to `COc1ccc(-c2c3n(c4cc(OC)c(OC)cc24)CCNC3=O)cc1` [Example 27], in experiment [1], the inhibition at 5 µM was 69%, the inhibition at 10 µM is 76%, the inhibition at 25 µM was 82% and the inhibition at 50 µM was 90%. Besides, the inhibition at 100 µM in experiment [1] is 99%. Also, in experiment [2], the inhibition at 5 µM was 11%, the inhibition at 10 µM is 31%, the inhibition at 25 µM was 35.5% and the inhibition at 50 µM is 82%. Further, the “Block of chemokine-induced autoreactive lymphocyte adhesion, in words” value (shortened to “Block”) in experiment [3] is listed as “almost complete block”. Further, in experiment [3] ([cpd] 5 μM), the “Chemokine-induced Adhesion in encephalitogenic lymphocytes, Mean counts ± S.D., in presence of MIP3-β stimulation” value (shortened to “Chemokine-induced Adhesion”) was 17.7 ± 2.5 and the “Adhesion in encephalitogenic lymphocytes, Mean counts ± S.D., in absence of MIP3-β stimulation” value (from here on “Adhesion … in absence of MIP3-β stimulation”) worked out at 5.0 ± 2.2. In addition, in experiment [3] ([cpd] 10 μM), the “Chemokine-induced Adhesion” value worked out at 18.1 ± 4.3 and the “Adhesion … in absence of MIP3-β stimulation” value came to 1.7 ± 1.0. Further, in experiment [3] ([cpd] 25 μM), the “Chemokine-induced Adhesion” value is recorded as 9.3 ± 0.5 and the “Adhesion … in absence of MIP3-β stimulation” value came out at 1.5 ± 0.1. Besides, in experiment [3] ([cpd] 50 μM), the “Chemokine-induced Adhesion” value amounted to 5.1 ± 1.1 and the “Adhesion … in absence of MIP3-β stimulation” value came to 1.2 ± 1.1.
With `COc1ccc(-c2c(C#N)[nH]c3cc(OC)c(OC)cc23)cc1` [Example 17], in experiment [1], the inhibition at 5 µM is 72.8%, the inhibition at 10 µM was 72.5%, the inhibition at 25 µM was 76% and the inhibition at 50 µM was 92%. Moreover, the inhibition at 100 µM in experiment [1] was 99%. Further, in experiment [2], the inhibition at 5 µM came to 34%, the inhibition at 10 µM is 53%, the inhibition at 25 µM is 71.5% and the inhibition at 50 µM was 89%. Besides, the “Block” value in experiment [3] is “almost complete block”. In experiment [3] ([cpd] 5 μM), the “Chemokine-induced Adhesion” value is 13.6 ± 3.5 and the “Adhesion … in absence of MIP3-β stimulation” value worked out at 2.0 ± 1.0. Further, in experiment [3] ([cpd] 10 μM), the “Chemokine-induced Adhesion” value came to 10.0 ± 3.0 and the “Adhesion … in absence of MIP3-β stimulation” value was found to be 0.9 ± 0.2. In experiment [3] ([cpd] 25 μM), the “Chemokine-induced Adhesion” value came to 1.8 ± 1.0 and the “Adhesion … in absence of MIP3-β stimulation” value came out at 0.6 ± 0.5. Besides, in experiment [3] ([cpd] 50 μM), the “Chemokine-induced Adhesion” value came out at 2.1 ± 0.9 and the “Adhesion … in absence of MIP3-β stimulation” value turned out to be 0.4 ± 0.1.
Regarding `COC(=O)c1[nH]c2cc(OC)c(OC)cc2c1-c1ccccc1` [Example 3], in experiment [1], the inhibition at 5 µM is 78%, the inhibition at 10 µM was 79.5%, the inhibition at 25 µM was 90% and the inhibition at 50 µM was 92%. In addition, in experiment [1], the inhibition at 100 µM was 99%. In experiment [2], the inhibition at 5 µM turned out to be 6%, the inhibition at 10 µM was 9%, the inhibition at 25 µM was 32.5% and the inhibition at 50 µM was 71.4%. In addition, in experiment [3], the “Block” value is on record as “almost complete block”. Moreover, in experiment [3] ([cpd] 5 μM), the “Chemokine-induced Adhesion” value came out at 10.5 ± 3.0 and the “Adhesion … in absence of MIP3-β stimulation” value is recorded as 1.5 ± 2.0. Besides, in experiment [3] ([cpd] 10 μM), the “Chemokine-induced Adhesion” value turned out to be 8.7 ± 3.0 and the “Adhesion … in absence of MIP3-β stimulation” value is 1.8 ± 1.0. Moreover, in experiment [3] ([cpd] 25 μM), the “Chemokine-induced Adhesion” value is 3.5 ± 1.5 and the “Adhesion … in absence of MIP3-β stimulation” value is listed as 1.2 ± 1.0. In addition, in experiment [3] ([cpd] 50 μM), the “Chemokine-induced Adhesion” value is on record as 5.0 ± 2.0 and the “Adhesion … in absence of MIP3-β stimulation” value came out at 0.5 ± 2.0.

The values above are taken from patent US20080226718A1, “Indole and Azaindole Derivatives For the Treatment of Inflammatory and Autoimmune Diseases” (Brane Discovery S.r.l, priority 2005, published 2008).
